Results taken from publication PMC12178155 (RSC Advances, 2025).

Tests used:
tubulin = tubulin polymerization inhibition; format: biochemical; conditions: read-out: Tubulin polymerization IC50
EGFR = EGFR (Homo sapiens, UniProt P00533); assay: in vitro EGFR inhibition; format: biochemical
Chain of EGFR (P00533 25-1210): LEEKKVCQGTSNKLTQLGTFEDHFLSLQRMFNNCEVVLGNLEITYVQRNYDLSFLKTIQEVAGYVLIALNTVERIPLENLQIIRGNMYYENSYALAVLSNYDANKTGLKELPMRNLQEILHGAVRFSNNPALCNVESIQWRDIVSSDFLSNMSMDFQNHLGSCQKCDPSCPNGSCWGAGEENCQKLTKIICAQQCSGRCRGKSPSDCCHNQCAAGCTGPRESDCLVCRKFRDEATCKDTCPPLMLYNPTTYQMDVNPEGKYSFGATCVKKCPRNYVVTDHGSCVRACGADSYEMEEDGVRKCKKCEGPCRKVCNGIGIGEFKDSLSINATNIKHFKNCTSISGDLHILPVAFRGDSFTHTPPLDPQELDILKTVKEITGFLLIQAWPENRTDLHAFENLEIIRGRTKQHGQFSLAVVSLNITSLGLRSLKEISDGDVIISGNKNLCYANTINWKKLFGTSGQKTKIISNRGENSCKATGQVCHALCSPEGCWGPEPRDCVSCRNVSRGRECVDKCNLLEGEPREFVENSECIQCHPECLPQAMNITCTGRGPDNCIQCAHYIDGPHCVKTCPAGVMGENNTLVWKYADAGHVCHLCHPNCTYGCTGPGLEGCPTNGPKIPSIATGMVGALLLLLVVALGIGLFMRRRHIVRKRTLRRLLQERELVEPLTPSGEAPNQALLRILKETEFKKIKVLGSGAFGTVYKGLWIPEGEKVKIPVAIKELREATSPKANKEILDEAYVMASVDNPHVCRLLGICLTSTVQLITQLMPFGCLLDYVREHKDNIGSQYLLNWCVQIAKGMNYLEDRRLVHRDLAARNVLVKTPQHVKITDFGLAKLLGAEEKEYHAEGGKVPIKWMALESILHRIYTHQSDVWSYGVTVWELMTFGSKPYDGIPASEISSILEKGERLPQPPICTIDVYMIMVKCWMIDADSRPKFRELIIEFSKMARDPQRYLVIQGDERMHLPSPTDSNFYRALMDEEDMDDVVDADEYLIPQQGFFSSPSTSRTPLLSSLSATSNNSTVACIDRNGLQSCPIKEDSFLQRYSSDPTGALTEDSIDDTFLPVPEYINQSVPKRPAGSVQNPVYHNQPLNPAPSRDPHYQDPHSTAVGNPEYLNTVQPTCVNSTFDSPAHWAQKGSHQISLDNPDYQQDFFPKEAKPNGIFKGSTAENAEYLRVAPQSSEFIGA

For `O=C1Nc2ccc(Cl)cc2C12CC(c1ccc(O)cc1)=NN2` (stereo not drawn) [5a, 5-Chloro-5′-(4-hydroxyphenyl)-2′,4′-dihydrospiro[indoline-3,3′-pyrazol]-2-one], the IC50 (tubulin) was 3850 ± 90 nM and the IC50 (EGFR) was 90 ± 50 nM.
Work on `O=C1Nc2ccc(Cl)cc2C12CC(c1ccc(Cl)cc1)=NN2` (stereo not drawn) [5d, 5-Chloro-5′-(4-chlorophenyl)-2′,4′-dihydrospiro[indoline-3,3′-pyrazol]-2-one] yielded an IC50 (EGFR) of 40 ± 90 nM.
In the case of “Tubulin polymerization inhibitor II [reference compound]”, the IC50 (tubulin) is reported as 4500 ± 130 nM.
Work on `Nc1ccc(C2=NNC3(C2)C(=O)Nc2ccc(Cl)cc23)cc1` (stereo not drawn) [5b, 5′-(4-Aminophenyl)-5-chloro-2′,4′-dihydrospiro[indoline-3,3′-pyrazol]-2-one] yielded an IC50 (tubulin) of 4350 ± 110 nM and an IC50 (EGFR) of 70 ± 90 nM.
`Nc1ccc(C(=O)C=C2C(=O)Nc3ccc(Cl)cc32)cc1` [4b] gave an IC50 (EGFR) of 50 ± 60 nM.
`COc1ccc(C2=NNC3(C2)C(=O)Nc2ccc(Cl)cc23)cc1` (stereo not drawn) [5c, 5-Chloro-5′-(4-methoxyphenyl)-2′,4′-dihydrospiro[indoline-3,3′-pyrazol]-2-one] showed an IC50 (EGFR) of 80 ± 80 nM.
`O=C1Nc2ccc(Cl)cc2/C1=C\C(=O)c1ccc(O)cc1` [4a, (E)-5-Chloro-3-(2-(4-hydroxyphenyl)-2-oxoethylidene)indolin-2-one] showed an IC50 (EGFR) of 100 ± 70 nM.
